Data taken from PubChem BioAssay AID1354 (Sanford-Burnham Center for Chemical Genomics, 2008).
Calls of active or inactive are those of the source.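 The calls were made as follows: active = survival over 30 points above compound-free thapsigargin wells at any thapsigargin dose; inactive = the rest.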

Test system: Jurkat, thapsigargin-induced death, ATPlite luminescence, 24 h
Test: protection from thapsigargin-induced Jurkat death, Jurkat T-cell leukemia, ATP content luminescence (AID 1354)
Conditions: at 25 µM, stronger effect = higher value
[1] = measured here: survival at thapsigargin 10 uM
[2] = measured here: survival at thapsigargin 15 uM

SMILES | survival (thapsigargin 7.5 uM) | survival [1] [%] | survival [2] [%]
COc1ccc(C2CC(=O)C3=C(C2)Nc2ccccc2NC3c2ccccc2C(F)(F)F)cc1OC (stereo not drawn) | 44% (inactive) | 32 | 2
COc1ccc(C2CC(=O)C3=C(C2)Nc2ccccc2NC3c2cccc(Oc3ccccc3)c2)cc1OC (stereo not drawn) | 51% (inactive) | 37 | 7
COc1ccc(C2CC(=O)C3=C(C2)Nc2ccccc2NC3c2cc(C)ccc2C)cc1 (stereo not drawn) | 54% (inactive) | 37 | 2
COc1ccc(C2CC(=O)C3=C(C2)Nc2ccccc2NC3c2cccc(Br)c2)cc1OC (stereo not drawn) | 34% (inactive) | 18 | 1
COc1ccc(C2CC(=O)C3=C(C2)Nc2ccccc2NC3c2cccc(C(F)(F)F)c2)cc1OC (stereo not drawn) | 42% (inactive) | 19 | 1
CCCOc1ccc(C2Nc3ccccc3NC3=C2C(=O)CC(c2ccc(OC)c(OC)c2)C3)cc1 (stereo not drawn) | 44% (inactive) | 17 | 1
CCOc1cc(C2Nc3ccccc3NC3=C2C(=O)CC(c2ccc(OC)cc2)C3)cc(Cl)c1O (stereo not drawn) | 55% (inactive) | 35 | 2
O=C1CC(c2ccccc2)CC2=C1C(c1c(F)cccc1Cl)Nc1ccccc1N2 (stereo not drawn) | 39% (inactive) | 23 | 1
CC1(C)CC(=O)C2=C(C1)Nc1ccccc1NC2c1ccc(-c2ccccc2)cc1 (stereo not drawn) | 14% (inactive) | 3 | 0
CCOc1cccc(C2Nc3ccccc3NC3=C2C(=O)CC(c2ccc(OC)cc2)C3)c1 (stereo not drawn) | 46% (inactive) | 32 | 1
CSc1ccc(C2Nc3ccccc3NC3=C2C(=O)CC(c2ccccc2)C3)cc1 (stereo not drawn) | 44% (inactive) | 23 | 4
